Assay results: patent publication US6706663B2, “Herbicidal 3-heterocyclic substituted benzisothiazole and benzisoxazole compounds” (Wyeth, priority 2000, dated 2004)

Columns and labels:
SETVI (Setaria viridis) [1] = assay: Postemergence herbicidal evaluation; assay type: in vivo, (L.) Beau; settings: for SETVI herbicidal rating: postemergence
Method in brief: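 Visual injury score (0-9: stand, vigor, malformation, size, chlorosis, overall appearance vs untreated control) taken four to five weeks post-spray. Two-week-old seedlings received about 0.0040 to 1.000 kg/ha active compound in acetone/water with 0.5% TWEEN 20.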

ZEAMX (Corn, Field) = assay: Postemergence herbicidal evaluation; assay type: in vivo, Zea mays, L.; settings: for ZEAMX herbicidal rating: postemergence
Method in brief: (§1)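 Visual 0–9 injury scores versus control plants, covering stand, vigour, malformation, size, chlorosis and general appearance, taken four to five weeks post-spray and averaged over replicate tests. Plants were sprayed at roughly two weeks old and held on greenhouse benches.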

SETVI (Setaria viridis) [2] = assay: Preemergence herbicidal evaluation; assay type: in vivo, (L.) Beau; settings: rated 4-5 weeks after treatment
Method in brief: (§2)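 Rating 0–9, visual, vs control; 4–5 wk after spraying seeded cups with compound in aq. acetone; conventional greenhouse care.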

[3] = test system: ECHCG (Echinochloa crus-galli); assay: Preemergence herbicidal evaluation; assay type: in vivo, (L.) Beau; settings: rated 4-5 weeks after treatment
Method in brief: as §2

[4] = test system: SAGPY (Sagittaria pygmaea); assay: Flooded paddy, preemergence weed control; assay type: in vivo, L.; settings: rated 3-4 weeks after treatment, 0-9 rating scale
Method in brief: (§3)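 Seeds or propagules were planted in the top 0.5 cm of silt loam soil and kept flooded 1.5–3 cm above the surface throughout, then held in the greenhouse. Injury was rated visually on a 0–9 scale against untreated controls, covering stand, vigor, malformation, size and chlorosis.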

ORYSAT (Rice, Tebonnet) [5] = assay: Preemergence herbicidal evaluation; assay type: in vivo, Oryza sativa, (L.) Tebonnet; settings: rated 4-5 weeks after treatment
ORYSAT (Rice, Tebonnet) [6] = assay: Flooded paddy, post-transplant rice tolerance; assay type: in vivo, Oryza sativa, (L.) Tebonnet; settings: flooded paddy, post-transplant rice, rated 3-4 weeks after treatment, 0-9 rating scale
Method in brief: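 Scores (0-9) reflect visual injury relative to untreated plants in flooded silt loam. Each pot held two transplanted ten-day-old seedlings under 1.5 to 3 cm standing water in the greenhouse.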

[7] = test system: MOOVA (Monochoria vaginalis); assay: Flooded paddy, preemergence weed control; assay type: in vivo, Presl.; settings: rated 3-4 weeks after treatment, 0-9 rating scale
Method in brief: as §3

[8] = test system: ECHORC (Echinochloa oryzoides); assay: Flooded paddy, preemergence weed control; assay type: in vivo, Echinochloa oryzoides (Ard.) Fritsch.; settings: rated 3-4 weeks after treatment, 0-9 rating scale
Method in brief: as §3

[9] = test system: IPOHE (Ipomoea hederacea); assay: Postemergence herbicidal evaluation; assay type: in vivo, (L.) Jacq.; settings: for IPOHE herbicidal rating: postemergence
Method in brief: as §1

[10] = test system: IPOHE (Ipomoea hederacea); assay: Preemergence herbicidal evaluation; assay type: in vivo, (L.) Jacq.; settings: rated 4-5 weeks after treatment
ORYSAT (Rice, Tebonnet) [11] = assay: Postemergence herbicidal evaluation; assay type: in vivo, Oryza sativa, (L.) Tebonnet; settings: for ORYSAT herbicidal rating: postemergence
Method in brief: as §1

GALAP (Galium aparine) = assay: Postemergence herbicidal evaluation; assay type: in vivo; settings: for GALAP herbicidal rating: postemergence
Method in brief: as §1

CYPIR (Cyperus iria) = assay: Flooded paddy, preemergence weed control; assay type: in vivo; settings: rated 3-4 weeks after treatment, 0-9 rating scale
Method in brief: as §3

[12] = test system: ECHCG (Echinochloa crus-galli); assay: Postemergence herbicidal evaluation; assay type: in vivo, (L.) Beau; settings: for ECHCG herbicidal rating: postemergence
Method in brief: as §1

[13] = test system: CASOB (Cassia obtusifolia); assay: Preemergence herbicidal evaluation; assay type: in vivo, L.; settings: rated 4-5 weeks after treatment
Method in brief: as §2

[14] = test system: CHEAL (Chenopodium album); assay: Preemergence herbicidal evaluation; assay type: in vivo, L.; settings: rated 4-5 weeks after treatment
Method in brief: as §2

[15] = test system: AMBEL (Ambrosia artemisifolia); assay: Preemergence herbicidal evaluation; assay type: in vivo, L.; settings: rated 4-5 weeks after treatment
Method in brief: as §2

[16] = test system: GLXMAW (Soybean, Williams); assay: Postemergence herbicidal evaluation; assay type: in vivo, Glycine max, (L.) Merr. cv Williams; settings: for GLXMAW herbicidal rating: postemergence
Method in brief: as §1

[17] = test system: ABUTH (Abutilon theophrasti); assay: Postemergence herbicidal evaluation; assay type: in vivo, Medic.; settings: for ABUTH herbicidal rating: postemergence
Method in brief: as §1

Compound: Cn1c(C(F)(F)F)cc(=O)n(-c2ccc3snc(C4OCCCS4)c3c2)c1=O (stereo not shown) [Compound 34, 1-methyl-3-[3-(1,3-oxathian-2-yl)-1,2-benzisothiazol-5-yl]-6-(trifluoromethyl)uracil]
- SETVI herbicidal rating (SETVI (Setaria viridis) [1]; rate 0.0320 kg/ha): 9.0
- SETVI herbicidal rating (SETVI (Setaria viridis) [1]; rate 0.0620 kg/ha): 9.0
- Postemergence herbicidal rating, SETVI (SETVI (Setaria viridis) [1]; rate 0.0320 kg/ha): 6.0
- Postemergence herbicidal rating, SETVI (SETVI (Setaria viridis) [1]; rate 0.0620 kg/ha): 8.0
- ZEAMX herbicidal rating (ZEAMX (Corn, Field); rate 0.0320 kg/ha): 5.0
- ZEAMX herbicidal rating (ZEAMX (Corn, Field); rate 0.0620 kg/ha): 7.0
- Postemergence herbicidal rating, ZEAMX (ZEAMX (Corn, Field); rate 0.0320 kg/ha): 6.0
- Postemergence herbicidal rating, ZEAMX (ZEAMX (Corn, Field); rate 0.0620 kg/ha): 7.0
- SETVI preemergence herbicidal rating (SETVI (Setaria viridis) [2]; Rate 0.0620 kg/ha): 9.0
- Preemergence herbicidal rating SETVI (SETVI (Setaria viridis) [2]; Rate 0.0620 kg/ha): 9.0
- SETVI preemergence herbicidal rating (SETVI (Setaria viridis) [2]; Rate 0.1250 kg/ha): 9.0
- Preemergence herbicidal rating SETVI (SETVI (Setaria viridis) [2]; Rate 0.1250 kg/ha): 9.0
- SETVI preemergence herbicidal rating (SETVI (Setaria viridis) [2]; Rate 0.2500 kg/ha): 9.0
- Preemergence herbicidal rating SETVI (SETVI (Setaria viridis) [2]; Rate 0.2500 kg/ha): 9.0
- ECHCG preemergence herbicidal rating ([3]; Rate 0.0620 kg/ha): 7.0
- Preemergence herbicidal rating ECHCG ([3]; Rate 0.0620 kg/ha): 9.0
- ECHCG preemergence herbicidal rating ([3]; Rate 0.1250 kg/ha): 8.0
- Preemergence herbicidal rating ECHCG ([3]; Rate 0.1250 kg/ha): 9.0
- ECHCG preemergence herbicidal rating ([3]; Rate 0.2500 kg/ha): 9.0
- Preemergence herbicidal rating ECHCG ([3]; Rate 0.2500 kg/ha): 9.0
- herbicidal rating, SAGPY ([4]; rate 0.0080 kg/ha): 0.0
- herbicidal rating, SAGPY ([4]; rate 0.0320 kg/ha): 4.7
- herbicidal rating, SAGPY ([4]; rate 0.0620 kg/ha): 3.5
- ORYSAT preemergence herbicidal rating (ORYSAT (Rice, Tebonnet) [5]; Rate 0.0620 kg/ha): 5.5
- Preemergence herbicidal rating ORYSAT (ORYSAT (Rice, Tebonnet) [5]; Rate 0.0620 kg/ha): 3.0
- ORYSAT preemergence herbicidal rating (ORYSAT (Rice, Tebonnet) [5]; Rate 0.1250 kg/ha): 8.0
- Preemergence herbicidal rating ORYSAT (ORYSAT (Rice, Tebonnet) [5]; Rate 0.1250 kg/ha): 4.5
- ORYSAT preemergence herbicidal rating (ORYSAT (Rice, Tebonnet) [5]; Rate 0.2500 kg/ha): 9.0
- Preemergence herbicidal rating ORYSAT (ORYSAT (Rice, Tebonnet) [5]; Rate 0.2500 kg/ha): 5.5
- herbicidal rating, ORYSAT (rice tolerance) (ORYSAT (Rice, Tebonnet) [6]; rate 0.0080 kg/ha): 3.0
- herbicidal rating, ORYSAT (rice tolerance) (ORYSAT (Rice, Tebonnet) [6]; rate 0.0080 kg/ha, listed as 81): 5.0
- herbicidal rating, ORYSAT (rice tolerance) (ORYSAT (Rice, Tebonnet) [6]; rate 0.0320 kg/ha): 6.7
- herbicidal rating, ORYSAT (rice tolerance) (ORYSAT (Rice, Tebonnet) [6]; rate 0.0620 kg/ha): 8.5
- herbicidal rating, ORYSAT (rice tolerance) (ORYSAT (Rice, Tebonnet) [6]; rate 0.1250 kg/ha): 9.0
- herbicidal rating, ORYSAT (rice tolerance) (ORYSAT (Rice, Tebonnet) [6]; rate 0.1250 kg/ha, listed as 81): 8.0
- herbicidal rating, MOOVA ([7]; rate 0.0320 kg/ha): 9.0
- herbicidal rating, MOOVA ([7]; rate 0.0620 kg/ha): 9.0
- herbicidal rating, MOOVA ([7]; rate 0.1250 kg/ha): 9.0
- herbicidal rating, ECHORC ([8]; rate 0.0320 kg/ha): 9.0
- herbicidal rating, ECHORC ([8]; rate 0.0620 kg/ha): 8.0
- herbicidal rating, ECHORC ([8]; rate 0.1250 kg/ha): 9.0
- IPOHE herbicidal rating ([9]; rate 0.0320 kg/ha): 9.0
- IPOHE herbicidal rating ([9]; rate 0.0620 kg/ha): 9.0
- Postemergence herbicidal rating, IPOHE ([9]; rate 0.0320 kg/ha): 9.0
- Postemergence herbicidal rating, IPOHE ([9]; rate 0.0620 kg/ha): 9.0
- IPOHE preemergence herbicidal rating ([10]; Rate 0.0620 kg/ha): 9.0
- Preemergence herbicidal rating IPOHE ([10]; Rate 0.0620 kg/ha): 6.0
- IPOHE preemergence herbicidal rating ([10]; Rate 0.1250 kg/ha): 9.0
- Preemergence herbicidal rating IPOHE ([10]; Rate 0.1250 kg/ha): 6.0
- IPOHE preemergence herbicidal rating ([10]; Rate 0.2500 kg/ha): 9.0
- Preemergence herbicidal rating IPOHE ([10]; Rate 0.2500 kg/ha): 9.0
- ORYSAT herbicidal rating (ORYSAT (Rice, Tebonnet) [11]; rate 0.0320 kg/ha): 5.5
- ORYSAT herbicidal rating (ORYSAT (Rice, Tebonnet) [11]; rate 0.0620 kg/ha): 6.5
- Postemergence herbicidal rating, ORYSAT (ORYSAT (Rice, Tebonnet) [11]; rate 0.0320 kg/ha): 7.0
- Postemergence herbicidal rating, ORYSAT (ORYSAT (Rice, Tebonnet) [11]; rate 0.0620 kg/ha): 7.0
- GALAP herbicidal rating (GALAP (Galium aparine); rate 0.0320 kg/ha): 2.0
- GALAP herbicidal rating (GALAP (Galium aparine); rate 0.0620 kg/ha): 6.0
- Postemergence herbicidal rating, GALAP (GALAP (Galium aparine); rate 0.0320 kg/ha): 6.0
- Postemergence herbicidal rating, GALAP (GALAP (Galium aparine); rate 0.0620 kg/ha): 7.0
- herbicidal rating, CYPIR (CYPIR (Cyperus iria); rate 0.0320 kg/ha): 9.0
- herbicidal rating, CYPIR (CYPIR (Cyperus iria); rate 0.0620 kg/ha): 7.0
- ECHCG herbicidal rating ([12]; rate 0.0320 kg/ha): 3.0
- ECHCG herbicidal rating ([12]; rate 0.0620 kg/ha): 4.0
- Postemergence herbicidal rating, ECHCG ([12]; rate 0.0320 kg/ha): 4.0
- Postemergence herbicidal rating, ECHCG ([12]; rate 0.0620 kg/ha): 6.0
- CASOB preemergence herbicidal rating ([13]; Rate 0.0620 kg/ha): 5.0
- Preemergence herbicidal rating CASOB ([13]; Rate 0.0620 kg/ha): 2.5
- CASOB preemergence herbicidal rating ([13]; Rate 0.1250 kg/ha): 9.0
- Preemergence herbicidal rating CASOB ([13]; Rate 0.1250 kg/ha): 3.0
- CASOB preemergence herbicidal rating ([13]; Rate 0.2500 kg/ha): 9.0
- Preemergence herbicidal rating CASOB ([13]; Rate 0.2500 kg/ha): 4.5
- CHEAL preemergence herbicidal rating ([14]; Rate 0.0620 kg/ha): 9.0
- Preemergence herbicidal rating CHEAL ([14]; Rate 0.0620 kg/ha): 9.0
- CHEAL preemergence herbicidal rating ([14]; Rate 0.1250 kg/ha): 9.0
- Preemergence herbicidal rating CHEAL ([14]; Rate 0.1250 kg/ha): 9.0
- CHEAL preemergence herbicidal rating ([14]; Rate 0.2500 kg/ha): 9.0
- Preemergence herbicidal rating CHEAL ([14]; Rate 0.2500 kg/ha): 9.0
- AMBEL preemergence herbicidal rating ([15]; Rate 0.0620 kg/ha): 9.0
- Preemergence herbicidal rating AMBEL ([15]; Rate 0.0620 kg/ha): 9.0
- AMBEL preemergence herbicidal rating ([15]; Rate 0.1250 kg/ha): 9.0
- Preemergence herbicidal rating AMBEL ([15]; Rate 0.1250 kg/ha): 9.0
- AMBEL preemergence herbicidal rating ([15]; Rate 0.2500 kg/ha): 9.0
- Preemergence herbicidal rating AMBEL ([15]; Rate 0.2500 kg/ha): 9.0
- GLXMAW herbicidal rating ([16]; rate 0.0320 kg/ha): 6.5
- GLXMAW herbicidal rating ([16]; rate 0.0620 kg/ha): 6.5
- Postemergence herbicidal rating, GLXMAW ([16]; rate 0.0320 kg/ha): 9.0
- Postemergence herbicidal rating, GLXMAW ([16]; rate 0.0620 kg/ha): 9.0
- ABUTH herbicidal rating ([17]; rate 0.0320 kg/ha): 9.0
- ABUTH herbicidal rating ([17]; rate 0.0620 kg/ha): 9.0
- Postemergence herbicidal rating, ABUTH ([17]; rate 0.0320 kg/ha): 9.0
- Postemergence herbicidal rating, ABUTH ([17]; rate 0.0620 kg/ha): 9.0
